Source: ChEMBL document CHEMBL1140238, “Synthesis of selective SRPK-1 inhibitors: novel tricyclic quinoxaline derivatives” (Bioorg Med Chem Lett, 2005)

Target: Hepatocyte growth factor receptor (Homo sapiens) (UniProt P08581)
Test: In vitro percent inhibition of Met proto-oncogene tyrosine kinase at 10 uM concentration of compound dissolved in 100% DMSO using 5''-[gamma-33P]-triphosphate
Settings: not given; call rule not given here

Sequence of Hepatocyte growth factor receptor (Homo sapiens) (P08581 whole entry): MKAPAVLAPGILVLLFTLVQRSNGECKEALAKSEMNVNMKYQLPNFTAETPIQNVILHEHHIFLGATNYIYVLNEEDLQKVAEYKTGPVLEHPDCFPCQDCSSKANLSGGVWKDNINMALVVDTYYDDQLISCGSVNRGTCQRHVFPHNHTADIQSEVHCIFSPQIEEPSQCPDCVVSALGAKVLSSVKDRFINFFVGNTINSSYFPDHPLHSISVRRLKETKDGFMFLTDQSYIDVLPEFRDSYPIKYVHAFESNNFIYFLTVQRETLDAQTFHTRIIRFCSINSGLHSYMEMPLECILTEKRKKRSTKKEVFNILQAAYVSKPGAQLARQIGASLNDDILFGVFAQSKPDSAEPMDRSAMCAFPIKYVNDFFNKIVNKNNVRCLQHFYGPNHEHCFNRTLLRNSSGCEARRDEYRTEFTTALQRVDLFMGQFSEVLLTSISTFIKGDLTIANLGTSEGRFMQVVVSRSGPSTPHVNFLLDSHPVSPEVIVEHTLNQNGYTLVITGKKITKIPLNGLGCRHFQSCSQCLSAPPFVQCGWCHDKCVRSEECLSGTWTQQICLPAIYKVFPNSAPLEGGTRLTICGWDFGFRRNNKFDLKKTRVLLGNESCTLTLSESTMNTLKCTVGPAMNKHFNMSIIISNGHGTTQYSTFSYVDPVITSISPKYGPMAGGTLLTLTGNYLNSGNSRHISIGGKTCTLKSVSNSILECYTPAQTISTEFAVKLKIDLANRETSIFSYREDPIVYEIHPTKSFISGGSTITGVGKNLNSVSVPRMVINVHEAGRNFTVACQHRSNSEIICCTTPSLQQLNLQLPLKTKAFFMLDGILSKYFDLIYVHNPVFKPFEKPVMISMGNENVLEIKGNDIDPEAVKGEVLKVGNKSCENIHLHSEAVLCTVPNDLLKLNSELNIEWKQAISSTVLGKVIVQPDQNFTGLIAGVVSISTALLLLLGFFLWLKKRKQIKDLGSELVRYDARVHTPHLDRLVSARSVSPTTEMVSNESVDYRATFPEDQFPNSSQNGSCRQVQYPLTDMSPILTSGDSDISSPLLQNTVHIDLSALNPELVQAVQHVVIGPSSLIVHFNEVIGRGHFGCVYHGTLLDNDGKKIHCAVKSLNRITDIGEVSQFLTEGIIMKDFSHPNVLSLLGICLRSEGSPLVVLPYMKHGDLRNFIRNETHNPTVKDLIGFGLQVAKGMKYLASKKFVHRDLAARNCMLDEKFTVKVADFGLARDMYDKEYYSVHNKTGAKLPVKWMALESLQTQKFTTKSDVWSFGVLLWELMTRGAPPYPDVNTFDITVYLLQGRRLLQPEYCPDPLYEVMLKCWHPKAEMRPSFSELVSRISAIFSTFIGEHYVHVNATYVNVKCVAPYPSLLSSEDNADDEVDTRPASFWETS

In order of falling inhibition:
1. O=C(O)Cc1ccc(-c2nc3cc4ccccc4cc3nc2-c2ccc(CC(=O)O)s2)s1  27%
2. COC(=O)CCCc1ccc(-c2nc3cc4ccccc4cc3nc2-c2ccc(CCCC(=O)OC)s2)s1  12%

System: not listed separately
Test: In vitro percent inhibition of Ribosomal S6 kinase 1 at 10 uM concentration of compound dissolved in 100% DMSO using 5''-[gamma-33P]-triphosphate
Settings: not given

In order of rising inhibition:
1. O=C(O)Cc1ccc(-c2nc3cc4ccccc4cc3nc2-c2ccc(CC(=O)O)s2)s1  23%
2. COC(=O)CCCc1ccc(-c2nc3cc4ccccc4cc3nc2-c2ccc(CCCC(=O)OC)s2)s1  38%

Target: Rho-associated protein kinase 2 (Homo sapiens) (UniProt O75116)
Test: In vitro percent inhibition of Protein kinase ROCK2 at 10 uM concentration of compound dissolved in 100% DMSO using 5''-[gamma-33P]-triphosphate
Settings: not given

In order of falling inhibition:
1. O=C(O)Cc1ccc(-c2nc3cc4ccccc4cc3nc2-c2ccc(CC(=O)O)s2)s1  5%
2. COC(=O)CCCc1ccc(-c2nc3cc4ccccc4cc3nc2-c2ccc(CCCC(=O)OC)s2)s1  5%

Target: Glycogen synthase kinase-3 beta (Homo sapiens) (UniProt P49841)
Test: In vitro percent inhibition of Glycogen synthase kinase 3 beta at 10 uM concentration of compound dissolved in 100% DMSO using 5''-[gamma-33P]-triphosphate
Settings: not given

In order of falling inhibition:
1. O=C(O)Cc1ccc(-c2nc3cc4ccccc4cc3nc2-c2ccc(CC(=O)O)s2)s1  47%
2. COC(=O)CCCc1ccc(-c2nc3cc4ccccc4cc3nc2-c2ccc(CCCC(=O)OC)s2)s1  24%

System: not listed separately
Test: In vitro percent inhibition of Cyclin-dependent kinase 2-cyclin A at 10 uM concentration of compound dissolved in 100% DMSO using 5''-[gamma-33P]-triphosphate
Settings: not given

In order of rising inhibition:
1. O=C(O)Cc1ccc(-c2nc3cc4ccccc4cc3nc2-c2ccc(CC(=O)O)s2)s1  8%
2. COC(=O)CCCc1ccc(-c2nc3cc4ccccc4cc3nc2-c2ccc(CCCC(=O)OC)s2)s1  25%

Target: RAC-alpha serine/threonine-protein kinase (Homo sapiens) (UniProt P31749)
Test: In vitro percent inhibition of Protein kinase B, alpha at 10 uM concentration of compound dissolved in 100% DMSO using 5''-[gamma-33P]-triphosphate
Settings: not given

Sequence of RAC-alpha serine/threonine-protein kinase (Homo sapiens) (P31749 whole entry): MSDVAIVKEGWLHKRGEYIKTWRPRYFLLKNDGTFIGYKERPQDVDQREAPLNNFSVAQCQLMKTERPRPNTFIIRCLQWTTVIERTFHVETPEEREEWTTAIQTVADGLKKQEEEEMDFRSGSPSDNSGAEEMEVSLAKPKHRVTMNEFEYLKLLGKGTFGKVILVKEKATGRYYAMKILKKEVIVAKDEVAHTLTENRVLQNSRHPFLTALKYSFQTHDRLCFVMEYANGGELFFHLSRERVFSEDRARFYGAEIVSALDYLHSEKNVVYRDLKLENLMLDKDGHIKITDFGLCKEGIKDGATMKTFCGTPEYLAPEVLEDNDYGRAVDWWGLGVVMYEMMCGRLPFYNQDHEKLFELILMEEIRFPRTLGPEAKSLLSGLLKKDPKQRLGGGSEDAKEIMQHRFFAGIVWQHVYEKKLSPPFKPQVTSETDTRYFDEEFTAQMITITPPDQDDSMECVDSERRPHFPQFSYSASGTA

In order of falling inhibition:
1. O=C(O)Cc1ccc(-c2nc3cc4ccccc4cc3nc2-c2ccc(CC(=O)O)s2)s1  15%
2. COC(=O)CCCc1ccc(-c2nc3cc4ccccc4cc3nc2-c2ccc(CCCC(=O)OC)s2)s1  -6%

Target: Epidermal growth factor receptor (Homo sapiens) (UniProt P00533)
Test: not given
Settings: 10 uM

Sequence of Epidermal growth factor receptor (Homo sapiens) (P00533 whole entry): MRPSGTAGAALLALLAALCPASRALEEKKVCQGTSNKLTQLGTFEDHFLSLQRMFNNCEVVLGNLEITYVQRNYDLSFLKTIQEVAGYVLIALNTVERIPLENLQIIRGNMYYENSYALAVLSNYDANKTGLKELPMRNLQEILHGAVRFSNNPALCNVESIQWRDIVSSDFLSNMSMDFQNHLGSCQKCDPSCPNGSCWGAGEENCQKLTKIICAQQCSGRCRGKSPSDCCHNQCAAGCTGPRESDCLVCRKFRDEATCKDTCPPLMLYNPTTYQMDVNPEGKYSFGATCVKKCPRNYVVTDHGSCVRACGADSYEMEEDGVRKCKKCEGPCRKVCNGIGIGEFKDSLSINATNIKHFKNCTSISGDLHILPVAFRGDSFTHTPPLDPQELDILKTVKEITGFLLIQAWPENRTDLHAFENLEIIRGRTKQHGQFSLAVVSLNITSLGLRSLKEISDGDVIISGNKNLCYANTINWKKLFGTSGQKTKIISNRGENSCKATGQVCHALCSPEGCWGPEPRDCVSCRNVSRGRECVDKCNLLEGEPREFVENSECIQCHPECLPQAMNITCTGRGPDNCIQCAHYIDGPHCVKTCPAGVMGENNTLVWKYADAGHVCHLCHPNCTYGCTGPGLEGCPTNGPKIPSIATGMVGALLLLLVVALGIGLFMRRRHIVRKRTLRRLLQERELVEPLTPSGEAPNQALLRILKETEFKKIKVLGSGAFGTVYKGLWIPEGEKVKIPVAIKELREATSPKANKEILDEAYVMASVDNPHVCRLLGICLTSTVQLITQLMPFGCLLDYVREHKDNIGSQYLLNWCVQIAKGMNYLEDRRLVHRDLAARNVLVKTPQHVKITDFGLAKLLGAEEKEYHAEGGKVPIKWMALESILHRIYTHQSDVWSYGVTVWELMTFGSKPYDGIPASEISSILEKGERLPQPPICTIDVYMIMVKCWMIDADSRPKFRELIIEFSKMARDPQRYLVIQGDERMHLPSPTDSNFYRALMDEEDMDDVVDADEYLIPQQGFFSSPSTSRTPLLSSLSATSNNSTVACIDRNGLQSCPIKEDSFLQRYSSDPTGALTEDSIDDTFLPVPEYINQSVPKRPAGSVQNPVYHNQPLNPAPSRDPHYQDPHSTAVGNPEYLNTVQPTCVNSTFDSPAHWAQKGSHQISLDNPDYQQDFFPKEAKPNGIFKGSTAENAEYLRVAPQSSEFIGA

In order of falling inhibition:
1. O=C(O)Cc1ccc(-c2nc3cc4ccccc4cc3nc2-c2ccc(CC(=O)O)s2)s1  52%
2. COC(=O)CCCc1ccc(-c2nc3cc4ccccc4cc3nc2-c2ccc(CCCC(=O)OC)s2)s1  8%

Target: Casein kinase I isoform alpha (Homo sapiens) (UniProt P48729)
Test: In vitro percent inhibition of Casein kinase 1 alpha at 10 uM concentration of compound dissolved in 100% DMSO using 5''-[gamma-33P]-triphosphate
Settings: not given

Sequence of Casein kinase I isoform alpha (Homo sapiens) (P48729 2-337 limits assumed): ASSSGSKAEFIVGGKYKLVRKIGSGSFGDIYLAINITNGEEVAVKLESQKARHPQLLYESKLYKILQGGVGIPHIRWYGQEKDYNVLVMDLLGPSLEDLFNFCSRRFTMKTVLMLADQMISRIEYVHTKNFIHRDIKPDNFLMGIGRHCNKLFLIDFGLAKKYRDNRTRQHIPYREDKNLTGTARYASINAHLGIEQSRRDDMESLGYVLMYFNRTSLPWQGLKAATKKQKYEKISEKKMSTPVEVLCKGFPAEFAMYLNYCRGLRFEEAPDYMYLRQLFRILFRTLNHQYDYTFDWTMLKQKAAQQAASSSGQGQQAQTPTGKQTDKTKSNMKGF

In order of rising inhibition:
1. O=C(O)Cc1ccc(-c2nc3cc4ccccc4cc3nc2-c2ccc(CC(=O)O)s2)s1  -2%
2. COC(=O)CCCc1ccc(-c2nc3cc4ccccc4cc3nc2-c2ccc(CCCC(=O)OC)s2)s1  30%

Target: Platelet-derived growth factor receptor beta (Homo sapiens) (UniProt P09619)
Test: In vitro percent inhibition of Platelet-derived growth factor receptor, beta polypeptide at 10 uM concentration of compound dissolved in 100% DMSO using 5''-[gamma-33P]-triphosphate
Settings: not given

In order of rising inhibition:
1. O=C(O)Cc1ccc(-c2nc3cc4ccccc4cc3nc2-c2ccc(CC(=O)O)s2)s1  10%
2. COC(=O)CCCc1ccc(-c2nc3cc4ccccc4cc3nc2-c2ccc(CCCC(=O)OC)s2)s1  47%

Target: Insulin receptor (Homo sapiens) (UniProt P06213)
Test: In vitro percent inhibition of Insulin receptor at 10 uM concentration of compound dissolved in 100% DMSO using 5''-[gamma-33P]-triphosphate
Settings: not given

`O=C(O)Cc1ccc(-c2nc3cc4ccccc4cc3nc2-c2ccc(CC(=O)O)s2)s1` gave an inhibition of 5%.

Target: Mitogen-activated protein kinase 3 (Homo sapiens) (UniProt P27361)
Test: In vitro percent inhibition of Mitogen-activated protein kinase 3 at 10 uM concentration of compound dissolved in 100% DMSO using 5''-[gamma-33P]-triphosphate
Settings: not given

Sequence of Mitogen-activated protein kinase 3 (Homo sapiens) (P27361 whole entry): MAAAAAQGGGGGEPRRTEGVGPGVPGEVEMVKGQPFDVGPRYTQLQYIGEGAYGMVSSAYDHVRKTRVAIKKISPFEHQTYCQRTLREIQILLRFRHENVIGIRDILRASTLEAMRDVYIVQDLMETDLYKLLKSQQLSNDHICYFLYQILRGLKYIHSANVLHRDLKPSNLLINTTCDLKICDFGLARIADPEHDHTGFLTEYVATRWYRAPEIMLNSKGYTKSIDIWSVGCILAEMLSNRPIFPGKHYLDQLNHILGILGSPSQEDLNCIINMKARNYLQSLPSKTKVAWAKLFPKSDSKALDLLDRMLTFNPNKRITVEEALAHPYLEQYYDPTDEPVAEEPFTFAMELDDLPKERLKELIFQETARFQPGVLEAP

In order of falling inhibition:
1. O=C(O)Cc1ccc(-c2nc3cc4ccccc4cc3nc2-c2ccc(CC(=O)O)s2)s1  52%
2. COC(=O)CCCc1ccc(-c2nc3cc4ccccc4cc3nc2-c2ccc(CCCC(=O)OC)s2)s1  8%

Target: T1, Inhibitor of nuclear factor kappa-B kinase subunit beta (Homo sapiens) (UniProt O14920)
T1 sequence (whole entry): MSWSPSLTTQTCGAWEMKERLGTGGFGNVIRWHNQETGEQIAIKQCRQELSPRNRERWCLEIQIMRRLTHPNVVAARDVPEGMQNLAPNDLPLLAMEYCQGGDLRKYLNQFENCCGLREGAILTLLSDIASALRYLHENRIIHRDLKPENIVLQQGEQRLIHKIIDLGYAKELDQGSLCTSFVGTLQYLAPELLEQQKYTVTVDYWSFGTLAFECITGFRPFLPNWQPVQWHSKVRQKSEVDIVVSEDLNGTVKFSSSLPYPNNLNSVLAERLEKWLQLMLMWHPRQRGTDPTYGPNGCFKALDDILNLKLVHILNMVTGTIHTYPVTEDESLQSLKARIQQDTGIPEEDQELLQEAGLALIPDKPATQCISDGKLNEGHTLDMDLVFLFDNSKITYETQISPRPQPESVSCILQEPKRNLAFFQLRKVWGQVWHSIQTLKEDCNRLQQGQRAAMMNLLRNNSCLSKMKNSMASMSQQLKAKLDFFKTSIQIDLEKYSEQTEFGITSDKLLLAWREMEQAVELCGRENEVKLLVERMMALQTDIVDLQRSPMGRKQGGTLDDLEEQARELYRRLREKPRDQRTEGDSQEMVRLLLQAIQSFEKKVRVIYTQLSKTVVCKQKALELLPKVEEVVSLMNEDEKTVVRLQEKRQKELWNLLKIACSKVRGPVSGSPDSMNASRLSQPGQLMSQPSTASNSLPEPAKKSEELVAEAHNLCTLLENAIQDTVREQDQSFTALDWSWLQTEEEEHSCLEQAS
Test: In vitro percent inhibition of I-kappa-B-kinase beta at 10 uM concentration of compound dissolved in 100% DMSO using 5''-[gamma-33P]-triphosphate
Settings: not given

In order of rising inhibition:
1. COC(=O)CCCc1ccc(-c2nc3cc4ccccc4cc3nc2-c2ccc(CCCC(=O)OC)s2)s1  16%
2. O=C(O)Cc1ccc(-c2nc3cc4ccccc4cc3nc2-c2ccc(CC(=O)O)s2)s1  25%

Target: RAF proto-oncogene serine/threonine-protein kinase (Homo sapiens) (UniProt P04049)
Test: In vitro percent inhibition of RAF proto-oncogene serine/threonine-protein kinase at 10 uM concentration of compound dissolved in 100% DMSO using 5''-[gamma-33P]-triphosphate
Settings: not given

Sequence of RAF proto-oncogene serine/threonine-protein kinase (Homo sapiens) (P04049 whole entry): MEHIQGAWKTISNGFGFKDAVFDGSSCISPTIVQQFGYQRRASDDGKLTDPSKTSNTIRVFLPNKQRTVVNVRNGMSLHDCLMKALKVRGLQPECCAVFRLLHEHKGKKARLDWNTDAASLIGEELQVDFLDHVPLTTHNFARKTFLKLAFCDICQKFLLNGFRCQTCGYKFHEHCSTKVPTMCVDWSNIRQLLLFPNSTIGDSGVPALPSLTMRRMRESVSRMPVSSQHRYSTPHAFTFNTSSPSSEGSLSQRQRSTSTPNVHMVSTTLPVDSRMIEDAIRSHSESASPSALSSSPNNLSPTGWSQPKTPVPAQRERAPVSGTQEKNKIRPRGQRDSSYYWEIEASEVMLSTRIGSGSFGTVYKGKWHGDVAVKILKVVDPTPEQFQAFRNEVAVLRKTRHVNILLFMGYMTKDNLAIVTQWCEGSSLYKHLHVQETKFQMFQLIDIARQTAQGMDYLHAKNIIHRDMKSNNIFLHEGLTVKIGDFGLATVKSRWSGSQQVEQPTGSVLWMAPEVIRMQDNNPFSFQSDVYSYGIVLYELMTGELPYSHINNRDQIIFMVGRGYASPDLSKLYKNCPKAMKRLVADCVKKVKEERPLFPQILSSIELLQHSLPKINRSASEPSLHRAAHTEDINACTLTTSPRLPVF

In order of rising inhibition:
1. O=C(O)Cc1ccc(-c2nc3cc4ccccc4cc3nc2-c2ccc(CC(=O)O)s2)s1  39%
2. COC(=O)CCCc1ccc(-c2nc3cc4ccccc4cc3nc2-c2ccc(CCCC(=O)OC)s2)s1  42%

Target: Tyrosine-protein kinase Lck (Homo sapiens) (UniProt P06239)
Test: In vitro percent inhibition of p56 Lck tyrosine kinase at 10 uM concentration of compound dissolved in 100% DMSO using 5''-[gamma-33P]-triphosphate
Settings: not given

Sequence of Tyrosine-protein kinase Lck (Homo sapiens) (P06239 2-509 limits assumed): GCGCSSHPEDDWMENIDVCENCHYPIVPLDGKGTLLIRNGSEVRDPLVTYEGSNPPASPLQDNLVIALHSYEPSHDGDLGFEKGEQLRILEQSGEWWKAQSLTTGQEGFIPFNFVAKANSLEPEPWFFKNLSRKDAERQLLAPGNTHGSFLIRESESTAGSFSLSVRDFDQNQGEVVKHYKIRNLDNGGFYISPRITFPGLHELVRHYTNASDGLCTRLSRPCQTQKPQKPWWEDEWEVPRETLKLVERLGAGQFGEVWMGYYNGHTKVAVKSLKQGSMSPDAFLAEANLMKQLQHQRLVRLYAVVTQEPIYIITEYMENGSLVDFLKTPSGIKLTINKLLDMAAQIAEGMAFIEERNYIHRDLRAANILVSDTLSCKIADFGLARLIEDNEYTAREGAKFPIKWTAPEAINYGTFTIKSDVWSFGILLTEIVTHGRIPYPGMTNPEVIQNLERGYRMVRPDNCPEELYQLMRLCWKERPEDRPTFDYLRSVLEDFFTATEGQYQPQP

In order of rising inhibition:
1. O=C(O)Cc1ccc(-c2nc3cc4ccccc4cc3nc2-c2ccc(CC(=O)O)s2)s1  -9%
2. COC(=O)CCCc1ccc(-c2nc3cc4ccccc4cc3nc2-c2ccc(CCCC(=O)OC)s2)s1  2%

System: not listed separately
Test: Partition coefficient (logP)
Format: physicochemical
Settings: octanol/water

In order of falling logP:
1. COC(=O)CCCc1ccc(-c2nc3cc4ccccc4cc3nc2-c2ccc(CCCC(=O)OC)s2)s1  5.5
2. O=C(O)Cc1ccc(-c2nc3cc4ccccc4cc3nc2-c2ccc(CC(=O)O)s2)s1  3.3

Target: Mitogen-activated protein kinase 8 (Homo sapiens) (UniProt P45983)
Test: In vitro percent inhibition of c-Jun N-terminal kinase 1-alpha 1 at 10 uM concentration of compound dissolved in 100% DMSO using 5''-[gamma-33P]-triphosphate
Settings: not given

In order of rising inhibition:
1. O=C(O)Cc1ccc(-c2nc3cc4ccccc4cc3nc2-c2ccc(CC(=O)O)s2)s1  -3%
2. COC(=O)CCCc1ccc(-c2nc3cc4ccccc4cc3nc2-c2ccc(CCCC(=O)OC)s2)s1  9%

Target: Mast/stem cell growth factor receptor Kit (Homo sapiens) (UniProt P10721)
Test: In vitro percent inhibition of v-kit Hardy-Zuckerman 4 feline sarcoma viral oncogene homolog at 10 uM concentration of compound dissolved in 100% DMSO using 5''-[gamma-33P]-triphosphate
Settings: not given

In order of rising inhibition:
1. COC(=O)CCCc1ccc(-c2nc3cc4ccccc4cc3nc2-c2ccc(CCCC(=O)OC)s2)s1  5%
2. O=C(O)Cc1ccc(-c2nc3cc4ccccc4cc3nc2-c2ccc(CC(=O)O)s2)s1  15%

Target: Ribosomal protein S6 kinase (P70S6K) (Homo sapiens) (UniProt Q9UBS0+P23443)
Test: In vitro percent inhibition of Ribosomal protein S6 kinase at 10 uM concentration of compound dissolved in 100% DMSO using 5''-[gamma-33P]-triphosphate
Format: protein-complex assay
Settings: not given

In order of falling inhibition:
1. O=C(O)Cc1ccc(-c2nc3cc4ccccc4cc3nc2-c2ccc(CC(=O)O)s2)s1  17%
2. COC(=O)CCCc1ccc(-c2nc3cc4ccccc4cc3nc2-c2ccc(CCCC(=O)OC)s2)s1  -7%

Target: Proto-oncogene tyrosine-protein kinase Src (Homo sapiens) (UniProt P12931)
Test: In vitro percent inhibition of c-Src tyrosine kinase at 10 uM concentration of compound dissolved in 100% DMSO using 5''-[gamma-33P]-triphosphate
Settings: not given

With `O=C(O)Cc1ccc(-c2nc3cc4ccccc4cc3nc2-c2ccc(CC(=O)O)s2)s1` the inhibition was 14%.

Target: T2, Tyrosine-protein kinase transforming protein Abl (Abelson murine leukemia virus) (UniProt P00521)
T2 sequence (whole entry): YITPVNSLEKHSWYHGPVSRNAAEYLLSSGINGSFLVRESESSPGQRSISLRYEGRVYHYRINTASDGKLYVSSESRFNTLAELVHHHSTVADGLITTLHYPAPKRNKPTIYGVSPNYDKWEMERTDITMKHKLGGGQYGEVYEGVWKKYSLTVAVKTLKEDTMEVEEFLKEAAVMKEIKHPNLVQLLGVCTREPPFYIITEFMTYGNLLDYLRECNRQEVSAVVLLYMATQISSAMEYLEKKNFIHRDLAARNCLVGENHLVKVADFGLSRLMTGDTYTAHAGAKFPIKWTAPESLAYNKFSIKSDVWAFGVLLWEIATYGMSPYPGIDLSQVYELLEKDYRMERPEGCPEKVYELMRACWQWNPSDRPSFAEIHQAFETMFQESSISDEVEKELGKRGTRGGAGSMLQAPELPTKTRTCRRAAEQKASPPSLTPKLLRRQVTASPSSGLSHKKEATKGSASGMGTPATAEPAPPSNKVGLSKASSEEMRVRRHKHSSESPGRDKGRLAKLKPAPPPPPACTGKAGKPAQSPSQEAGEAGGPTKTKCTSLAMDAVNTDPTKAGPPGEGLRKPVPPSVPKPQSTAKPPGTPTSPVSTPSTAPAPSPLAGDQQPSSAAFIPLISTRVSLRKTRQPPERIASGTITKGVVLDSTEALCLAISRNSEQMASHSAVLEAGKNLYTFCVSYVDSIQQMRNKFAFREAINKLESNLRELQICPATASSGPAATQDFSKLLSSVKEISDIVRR
Test: In vitro percent inhibition of v-Abl tyrosine kinase at 10 uM concentration of compound dissolved in 100% DMSO using 5''-[gamma-33P]-triphosphate
Settings: not given

In order of rising inhibition:
1. O=C(O)Cc1ccc(-c2nc3cc4ccccc4cc3nc2-c2ccc(CC(=O)O)s2)s1  10%
2. COC(=O)CCCc1ccc(-c2nc3cc4ccccc4cc3nc2-c2ccc(CCCC(=O)OC)s2)s1  15%

System: SRPK1 (Homo sapiens)
Test: In vitro inhibition of SR protein kinase 1 by compound dissolved in 100% DMSO using 5''-[gamma-33P]-triphosphate; n.a. - not active
Settings: not given

For `COC(=O)CCCc1ccc(-c2nc3cc4ccccc4cc3nc2-c2ccc(CCCC(=O)OC)s2)s1`, the IC50 was “Not Active”.
